The assay deals with 293T cells stably transfected with a BCRM-1 expression vector. As to the kind of experiment: clonogenic assays of stably transfected 293T cells with cisplatin. Format: cell-based. The following applies: clone with the highest level of BCRM-1 vs control vector transfectants, FIG. 3. The text has this: To investigate whether BCRM-1 could render cells resistant to DNA-damaging agents, 293T cells were stably transfected with a BCRM-1 expression vector (FIG. 3). The BCRM-1 full length EcoRI-XhoI fragment was cloned into the EcoRI-XhoI sites of the pcDNA6/Bsd vector (Clontech, Palo Alto, Calif.). 293T cells were transfected with the BCRM/bsd vector or an empty pcDNA/bsd vector, respectively, by the method described in Example 8 above; Stable transfectants were selected through serial passages in the presence of blasticidin 10 μg/ml (Clontech, Palo Alto, Calif.). These blasticidin-resistant clones were isolated and repicked using the same selection procedure. One of these clones expressed the highest level of BCRM-1 by Western blotting. It was further tested in clonogenic assays and found to be 5-10 times more resistant to DNA damaging agent cisplatin than 293T cells stably transfected with the control vector (FIG. 3).

As to `N.N.[Cl][Pt][Cl]` [cisplatin], the “resistance to cisplatin of the BCRM-1 expressing clone relative to 293T cells stably transfected with the control vector” value was 5-10 times.

The record behind these values is US20070092877A1, “Bcrm-1 genes and uses thereof” (priority 2003, published 2007).
